Data: patent US20190225650A1, “PEPTIDOMIMETIC MACROCYCLES AND USE THEREOF IN REGULATING HIF1ALPHA” (AILERON THERAPEUTICS, INC., priority 2013, published 2019)
Bridge positions count the residues as written; N and C are the ends. Square brackets hold non-standard residues; d marks the D form. Peptide text beside a SMILES is read from it. R8 = C=CCCCCCC[C@@](C)(N)C(=O)O; S5 = C=CCCC[C@](C)(N)C(=O)O; Nle = CCCC[C@H](N)C(=O)O

Experiments:
[1] = test system: HRE-bla ME-180 cells; assay: Cell proliferation assay (viability, MTT, 1% FBS); assay type: cell-based, human
Procedure, shortened: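 Viable cell number was measured with the CellTiter 96 (MTT) kit after compounds were applied for a 16 h normoxic (21% O2) pretreatment, followed by further normoxic or hypoxic (1% O2) culture. Cells: 2×10^4 ME-180 per well, Opti-MEM + 1% FBS, 0.5% DMSO vehicle.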

[2] = target: T1, flag-tagged HIF1α (AA 786-826) / His6-tagged p300 (AA 323-423) complex (Homo sapiens, UniProt Q09472); assay: HIF1α p300 displacement assay (TR FRET, +CHAPS); assay type: binding; details: read-out: IC50 (nM) (HIF1α_p300 Displacement + CHAPS)
T1 construct: His6-tagged p300 (AA 323-423); made in house; host or cells: E. coli (pETDuet vector)
Procedure, shortened: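 In this TR-FRET displacement format, peptides compete HIF1α C-terminal transactivation domain off p300-CH. They were preincubated 1 h at room temperature with 300 nM complex in HEPES pH 7.4/NaCl buffer with 7.5 mM CHAPS and 1 mM DTT. Anti-His-D2 (4 nM) and anti-Flag-K (0.5 μM) followed for 2 h, and a one-site fit of the fluorescence ratio gave IC50.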

[3] = test system: HRE-bla ME-180 cells; assay: Reporter gene assay (HRE-bla ME-180 HIF reporter, GeneBLAzer); assay type: cell-based, human; details: for EC50: 24 hour normoxia
Procedure, shortened: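 A FRET β-lactamase readout of HIF transcription was used. After compound treatment in 0.3% DMSO/media under normoxic conditions, 20 μl of 6× LiveBLAzer-FRET B/G (CCF4-AM) substrate was added. Plates sat 3 hr at room temperature in the dark and were read at 409 Ex/460Em and 409Ex/530Em on a Synergy 2. Inhibition was compared against DMSO vehicle controls, with chetomin as positive control.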

[4] = target: T2, His6-tagged p300 (AA 323-423) (UniProt Q09472 323-423); assay: TR-FRET HIF1a/p300 displacement; grade = IC50 >700 nM
T2 construct: range 323-423; also called p300-CH; not shown: His6 tag
T2 sequence (Q09472 323-423 limits assumed): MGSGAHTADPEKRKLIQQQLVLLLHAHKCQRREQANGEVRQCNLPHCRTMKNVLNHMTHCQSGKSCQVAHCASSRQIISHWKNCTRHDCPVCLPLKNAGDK
Experimental: The ability of peptides to displace HIF1α c-terminal trans-activation domain from p300-CH was measured by a TR FRET assay. […] The complex was diluted to 300 nM final in complete assay media and competitor peptides were added. The complete assay media contained 150 mM NaCl (Sigma +S5150 or equivalent), 20 mM HEPES pH 7.4 (Boston Bioproducts, Ashland, Mass.; #BB-2076), 7.5 mM CHAPS (Thermo #28300 or equivalent), and 1 mM DTT. Protein and peptide were incubated at room temperature for 1 hour before the addition of anti-Flag-K and anti-6×HIS-D2 (CisBio, Bedford Mass.) HTRF reconstitution buffer (50 mM Phosphate pH 7, 0.8 Potassium Flouride, BSA 0.2%)¹ to a final concentration of 0.5 μM and 4 nM respectively. The reaction continued for an additional two hours at room temperature. The reaction was read on a TECAN F500 plate reader with settings recommended by CisBio. The ratio of donor to acceptor fluorescence was calculated. The resulting data was analyzed with Graphpad Prism 5.0. IC50 values were calculated for both proteins using the One Site Fit-LogIC50 equation and presented in the column “IC₅₀ (nM) (HIF1α_p300 Displacement+CHAPS)” of Table 6. ¹ Cisbio USA, Bedford, Mass.; 61HISDLB (lot 007A), 61FG2KLB (024A), HTRF Buffer (62RB3RDF)

Row | Molecule | Viability 1% FBS AVG (MTT V3-24 hr Normoxia) (μM) [1] | IC50 [2] [nM] | 18 h Avg % max inhibition at top conc (HIF Rptr-24 hrs normoxia) (μM) [3] | EC50 [3] [µM] | IC50 [4] [nM]
1 | CC[C@H](C)[C@H](NC(=O)[C@H](CC(N)=O)NC(=O)[C@@H](NC(=O)[C@H](CCC(N)=O)NC(=O)[C@H](CC(=O)O)NC(=O)[C@H](CC(C)C)NC(=O)[C@H](C)NC(=O)[C@H](CCCNC(=N)N)NC(=O)[C@H](CC(C)C)NC(=O)[C@H](CC(C)C)NC(=O)[C@H](CCC(=O)O)NC(=O)[C@H](CCC(=O)O)NC(=O)CNC(=O)[C@H](CCC(N)=O)NC(=O)[C@H](CC(C)C)NC(=O)[C@H](CC(C)C)NC(C)=O)C(C)C)C(=O)N[C@@H](CC(=O)O)C(=O)N[C@@H](CCC(=O)O)C(=O)N[C@]1(C)CCCCCCC=CCCC[C@@](C)(C(=O)N[C@@H](CCC(=O)O)C(=O)N[C@@H](CCSC)C(N)=O)NC(=O)[C@H](C(C)C)NC(=O)[C@H](CC(C)C)NC(=O)[C@H](CO)NC(=O)[C@H](CCSC)NC(=O)[C@H](CC(C)C)NC(=O)[C@H](C(C)C)NC1=O [SP-320] (Ac-LLQGEELLRALDQVNIDE[R8]VLMSLV[S5]EM-NH2; staple 19-26) | ++++ (≥30: ++++) | 200 to 400 | + (<10: +) | > 30 | –
2 | CC[C@H](C)[C@H](NC(=O)[C@H](Cc1ccccc1)NC(C)=O)C(=O)N[C@@H](CC(=O)O)C(=O)N[C@@H](CCC(=O)O)C(=O)N[C@@H](CCC(N)=O)C(=O)N[C@H](C(=O)N[C@@H](CC(C)C)C(=O)N[C@@H](CCSC)C(=O)N[C@@]1(C)CCCC=CCCC[C@@](C)(C(=O)N[C@@H](CCSC)C(=O)N[C@@H](C)C(=O)N[C@@H](CC(C)C)C(N)=O)NC(=O)[C@H]([C@@H](C)CC)NC(=O)[C@H](C(C)C)NC(=O)[C@H](CC(C)C)NC1=O)C(C)C [SP-234] (Ac-FIDEQVLM[S5]LVI[S5]MAL-NH2; staple 9-13) | ++++ (≥30: ++++) | 400 to 700 | +++ (≤25 but <50: +++) | > 30 | –
3 | CC[C@H](C)[C@H](NC(=O)[C@H](Cc1ccccc1)NC(C)=O)C(=O)N[C@@H](CO)C(=O)N[C@@H](CCC(=O)O)C(=O)N[C@@H](CCC(=O)O)C(=O)N[C@H](C(=O)N[C@@H](CC(C)C)C(=O)N[C@@H](CCSC)C(=O)N[C@@]1(C)CCCC=CCCC[C@@](C)(C(=O)N[C@@H](CCSC)C(=O)N[C@@H](C)C(=O)N[C@@H](CC(C)C)C(N)=O)NC(=O)[C@H]([C@@H](C)CC)NC(=O)[C@H](C(C)C)NC(=O)[C@H](CC(C)C)NC1=O)C(C)C [SP-230] (Ac-FISEEVLM[S5]LVI[S5]MAL-NH2; staple 9-13) | ++++ (≥30: ++++) | 400 to 700 | + (<10: +) | > 30 | –
4 | CCCC[C@@H]1NC(=O)[C@H](CC(C)C)NC(=O)[C@H](C(C)C)NC(=O)[C@@](C)(NC(=O)[C@H](CCC(=O)O)NC(=O)[C@H](CC(=O)O)NC(=O)[C@@H](NC(=O)[C@H](Cc2ccccc2)NC(C)=O)[C@@H](C)CC)CCCC=CCCC[C@@](C)(C(=O)N[C@@H](CC(C)C)C(=O)N[C@H](C(=O)N[C@H](C(=O)N[C@@H](CCC(=O)O)C(=O)N[C@@H](CO)C(=O)N[C@@H](C)C(=O)N[C@@H](CC(C)C)C(N)=O)[C@@H](C)CC)C(C)C)NC1=O [SP-147] (Ac-FIDE[S5]VL[Nle][S5]LVIESAL-NH2; staple 5-9) | ++++ (≥30: ++++) | > 700 | +++ (≤25 but <50: +++) | 15 to 30 | –
5 | CCCC[C@H](NC(=O)[C@H](CCC(=O)O)NC(=O)[C@]1(C)CCCC=CCCCCCC[C@@](C)(NC(=O)[C@H](CCC(=O)O)NC(=O)[C@H](C)NC(=O)[C@@H](NC(=O)[C@H](CC(N)=O)NC(=O)[C@@H](NC(=O)[C@H](CCC(N)=O)NC(=O)[C@]2(C)CCCC=CCCC[C@](C)(NC(=O)[C@H](CC(C)C)NC(=O)[C@H](CCC(=O)O)NC(=O)[C@H](CCC(=O)O)NC(=O)CNC(=O)[C@H](CCC(N)=O)NC(=O)[C@H](CC(C)C)NC(=O)[C@H](CC(C)C)NC(C)=O)C(=O)N[C@@H](CCCNC(=N)N)C(=O)N[C@@H](C)C(=O)N[C@@H](CC(C)C)C(=O)N2)C(C)C)[C@@H](C)CC)C(=O)N[C@@H](C(C)C)C(=O)N[C@@H](CC(C)C)C(=O)N[C@@H](CCCC)C(=O)N[C@@H](CO)C(=O)N[C@@H](CC(C)C)C(=O)N[C@@H](C(C)C)C(=O)N1)C(N)=O [SP-365] (Ac-LLQGEEL[S5]RAL[S5]QVNIAE[R8]VL[Nle]SLV[S5]E[Nle]-NH2; staple 8-12, 19-26) | ++++ (≥30: ++++) | > 700 | +++ (≤25 but <50: +++) | > 30 | –
6 | Ac-AIDEEVL[Nle][S5]LVI[S5][Nle]ALDRI-NH2 (staple 9-13; SMILES CCCC[C@H](NC(=O)[C@H](CC(C)C)NC(=O)[C@@H](NC(=O)[C@H](CCC(=O)O)NC(=O)[C@H](CCC(=O)O)NC(=O)[C@H](CC(=O)O)NC(=O)[C@@H](NC(=O)[C@H](C)NC(C)=O)[C@@H](C)CC)C(C)C)C(=O)N[C@@]1(C)CCCC=CCCC[C@@](C)(C(=O)N[C@@H](CCCC)C(=O)N[C@@H](C)C(=O)N[C@@H](CC(C)C)C(=O)N[C@@H](CC(=O)O)C(=O)N[C@@H](CCCNC(=N)N)C(=O)N[C@H](C(N)=O)[C@@H](C)CC)NC(=O)[C@H]([C@@H](C)CC)NC(=O)[C@H](C(C)C)NC(=O)[C@H](CC(C)C)NC1=O) [SP-9] | – | – | – | – | > 700
7 | Ac-FADEEVL[Nle][S5]LVI[S5][Nle]ALDRI-NH2 (staple 9-13; SMILES CCCC[C@H](NC(=O)[C@H](CC(C)C)NC(=O)[C@@H](NC(=O)[C@H](CCC(=O)O)NC(=O)[C@H](CCC(=O)O)NC(=O)[C@H](CC(=O)O)NC(=O)[C@H](C)NC(=O)[C@H](Cc1ccccc1)NC(C)=O)C(C)C)C(=O)N[C@@]1(C)CCCC=CCCC[C@@](C)(C(=O)N[C@@H](CCCC)C(=O)N[C@@H](C)C(=O)N[C@@H](CC(C)C)C(=O)N[C@@H](CC(=O)O)C(=O)N[C@@H](CCCNC(=N)N)C(=O)N[C@H](C(N)=O)[C@@H](C)CC)NC(=O)[C@H]([C@@H](C)CC)NC(=O)[C@H](C(C)C)NC(=O)[C@H](CC(C)C)NC1=O) [SP-10] | – | – | – | – | > 700
8 | Ac-FIAEEVL[Nle][S5]LVI[S5][Nle]ALDRI-NH2 (staple 9-13; SMILES CCCC[C@H](NC(=O)[C@H](CC(C)C)NC(=O)[C@@H](NC(=O)[C@H](CCC(=O)O)NC(=O)[C@H](CCC(=O)O)NC(=O)[C@H](C)NC(=O)[C@@H](NC(=O)[C@H](Cc1ccccc1)NC(C)=O)[C@@H](C)CC)C(C)C)C(=O)N[C@@]1(C)CCCC=CCCC[C@@](C)(C(=O)N[C@@H](CCCC)C(=O)N[C@@H](C)C(=O)N[C@@H](CC(C)C)C(=O)N[C@@H](CC(=O)O)C(=O)N[C@@H](CCCNC(=N)N)C(=O)N[C@H](C(N)=O)[C@@H](C)CC)NC(=O)[C@H]([C@@H](C)CC)NC(=O)[C@H](C(C)C)NC(=O)[C@H](CC(C)C)NC1=O) [SP-11] | – | – | – | – | > 700
9 | Ac-FIDAEVL[Nle][S5]LVI[S5][Nle]ALDRI-NH2 (staple 9-13; SMILES CCCC[C@H](NC(=O)[C@H](CC(C)C)NC(=O)[C@@H](NC(=O)[C@H](CCC(=O)O)NC(=O)[C@H](C)NC(=O)[C@H](CC(=O)O)NC(=O)[C@@H](NC(=O)[C@H](Cc1ccccc1)NC(C)=O)[C@@H](C)CC)C(C)C)C(=O)N[C@@]1(C)CCCC=CCCC[C@@](C)(C(=O)N[C@@H](CCCC)C(=O)N[C@@H](C)C(=O)N[C@@H](CC(C)C)C(=O)N[C@@H](CC(=O)O)C(=O)N[C@@H](CCCNC(=N)N)C(=O)N[C@H](C(N)=O)[C@@H](C)CC)NC(=O)[C@H]([C@@H](C)CC)NC(=O)[C@H](C(C)C)NC(=O)[C@H](CC(C)C)NC1=O) [SP-12] | – | – | – | – | > 700
